Converted amounts (≈) assume the structure as drawn.
Legend:
Bacillus cereus [1] = assay: Bactericidal/bacteriostatic activity (CFU), Bacillus cereus; assay type: cell-based
Staphylococcus aureus = assay: Bactericidal/bacteriostatic activity (CFU), Staphylococcus aureus; assay type: cell-based; conditions: 1 to 2 hours, FIG. 2B
[2] = tested on: human acute monocytic leukemia cells (THP1 cells); assay: Growth of THP1 cells, MTT metabolic assay; assay type: cell-based; conditions: Homo sapiens, THP-1, 24 h, read-out: drop in cell viability
Description: THP1 cells were either mock-treated (DMSO vehicle alone), or treated with increasing doses of new compounds 37 and 45, from 0 to 32 μg/mL. Cells were incubated in the presence of compound for 24 hours, and subsequently were assayed for total cell viability using an MTT, metabolic assay.

[3] = In vivo tolerance in mice; conditions: highest dose, 50 mg/kg
Bacillus cereus [4] = assay: Pre-incubation of compound in MHB medium, inhibitory activity against Bacillus cereus; assay type: cell-based; conditions: initial concentration equal to the MIC value; FIG. 5
Description: Preincubation of Compound 37 in Culture Medium and Its Effect on Growth-Inhibitory Activity. Compound 37 was added to liquid Muller-Hinton Broth (MHB) medium in microtiter plate to final concentration 2 mg/ml and incubated for the periods of time indicated in FIG. 5 before addition to cultures of B. cereus. After incubation for 20 h at 37° C., bacterial growth was assessed by measuring of the turbidity at 600 nm.
ITC compounds can react with amine- and thiol-containing components of the culture media with the formation of corresponding thioureas and dithiocarbamates. The effect of pre-incubation of Compound 37 in MHB medium on its inhibitory activity against Bacillus cereus was determined at an initial concentration equal to the MIC value. While no growth of the bacteria occurs upon immediate addition of the inhibitor, progressive growth is observed as a function of pre-incubation time.

[5] = tested on: Mycobacterium tuberculosis H37Rv strain; assay: In vitro infection model, bacterial growth inhibition in infected macrophages; assay type: cell-based; conditions: M. tuberculosis H37Rv; up to 1 μg/mL; Rifampicin control
Excerpt: Rifampicin was used as a control for this experiment.

virus (92TH594) = assay: Viral proliferation in PBMC, p24 viral antigen; assay type: cell-based; conditions: PBMC
Candida crusei 6258^mdr [6] = assay: microbe, parasite or virus in culture; conditions: read-out: Anti-Fungal Activity (MIC)
[7] = tested on: human peritoneal macrophages infected with Mycobacterium tuberculosis H37Rv strain; assay: In vitro infection model, cytotoxicity; conditions: up to 1 μg/mL; Rifampicin control
[8] = tested on: Staphylococcus epidermidis BK12799; assay: MIC, Staphylococcus epidermidis BK12799
Candida albicans 90028 = assay: Anti-fungal MIC, Candida albicans 90028
Candida albicans 90030 = assay: Anti-fungal MIC, Candida albicans 90030
Candida dlabrata 250^mdr = assay: Anti-fungal MIC, Candida dlabrata 250^mdr
[9] = tested on: Candida albicans 5108^mdr; assay: Anti-fungal MIC, Candida albicans 5108^mdr
[10] = tested on: Candida parapsilosis 22019; assay: Anti-fungal MIC, Candida parapsilosis 22019
[11] = tested on: Aspergillus fumigatus Rit 1; assay: Anti-fungal MIC, Aspergillus fumigatus Rit 1
[12] = tested on: Aspergillus fumigatus Rit 11; assay: Anti-fungal MIC, Aspergillus fumigatus Rit 11
[13] = tested on: Aspergillus fumigatus Rit 21; assay: Anti-fungal MIC, Aspergillus fumigatus Rit 21
[14] = tested on: Cryptococcus neoformans CNH99; assay: Anti-fungal MIC, Cryptococcus neoformans CNH99
Candida crusei 6258^mdr [15] = tested on: Candida crusei 6258^mdr
[16] = compound 2.5 μg/ml, added to the cells after viral infection
[17] = compound 2.5 μg/ml, added to the cells before viral infection
[18] = compound 10 μg/ml, added to the cells after viral infection
[19] = compound 10 μg/ml, added to the cells before viral infection
[20] = Staphylococcus epidermidis BK12799, Gram +, 24 hours of incubation

S=C=NCc1ccc(CN=C=S)cc1 [Compound 37]
bacterial growth at 20 h (Bacillus cereus [1]; Compound at 4 μg/ml, data not shown): no bacterial growth was detected
cell viability of Bacillus cereus (CFU) (Bacillus cereus [1]; incubation 1 to 2 hours, FIG. 2A): dramatic decrease in cell viability
effect on Staphylococcus aureus cultures (Staphylococcus aureus): bacteriostatic effect
cytotoxicity at 8 µg/mL [2]: ~25%
toxicity in treated mice [3]: no toxicity was observed
effect of pre-incubation in MHB medium on inhibitory activity (Bacillus cereus [4]): decrease of inhibition potency
growth inhibitory activity in infected macrophages [5]: gave similar results
P24 values (virus (92TH594); [16]): 760 pg/mL
P24 values (virus (92TH594); [17]): 210 pg/mL
P24 values (virus (92TH594); [18]): 340 pg/mL
P24 values (virus (92TH594); [19]): 0 pg/mL
MIC (Candida crusei 6258^mdr [6]): 0.5 mg/L (≈ 2.27 µM)
cytotoxicity in infected macrophages [7]: exhibited more toxicity
MIC ([8]; Staphylococcus epidermidis, BK12799, 24 h): 0.5 mg/L (≈ 2.27 µM)
MIC (Candida albicans 90028; Candida albicans, 90028, read-out: Anti-Fungal Activity (MIC)): 0.5 mg/L (≈ 2.27 µM)
MIC (Candida albicans 90030; Candida albicans, 90030, read-out: Anti-Fungal Activity (MIC)): 0.5 mg/L (≈ 2.27 µM)
MIC (Candida dlabrata 250^mdr; Candida, 48 h, read-out: Anti-Fungal Activity (MIC)): 0.125 mg/L (≈ 0.567 µM)
MIC ([9]; Candida albicans, read-out: Anti-Fungal Activity (MIC)): 0.5 mg/L (≈ 2.27 µM)
MIC ([10]; 22019, read-out: Anti-Fungal Activity (MIC)): 0.5 mg/L (≈ 2.27 µM)
MIC ([11]; Aspergillus fumigatus, RIT1, read-out: Anti-Fungal Activity (MIC)): 0.5 mg/L (≈ 2.27 µM)
MIC ([12]; Aspergillus fumigatus, RIT11, read-out: Anti-Fungal Activity (MIC)): 0.5 mg/L (≈ 2.27 µM)
MIC ([13]; Aspergillus fumigatus, RIT21, read-out: Anti-Fungal Activity (MIC)): 0.5 mg/L (≈ 2.27 µM)
MIC ([14]; Cryptococcus neoformans, CNH99, read-out: Anti-Fungal Activity (MIC)): < 1 mg/L

S=C=NCCCCCCCN=C=S [Compound 41, S═C═N—(CH2)7—N═C═S]
Anti-Fungal Activity (MIC) (Candida crusei 6258^mdr [15]): 2 mg/L
MIC [8, 20]: 1 mg/L (≈ 4.67 µM)
Anti-Fungal Activity (MIC) (Candida albicans 90028; Candida albicans 90028): 8 mg/L
Anti-Fungal Activity (MIC) (Candida albicans 90030; Candida albicans 90030): <1 mg/L
Anti-Fungal Activity (MIC) (Candida dlabrata 250^mdr; Candida dlabrata 250^mdr): <1 mg/L
Anti-Fungal Activity (MIC) ([9]; Candida albicans 5108^mdr): 8 mg/L
Anti-Fungal Activity (MIC) ([10]; Candida parapsilosis 22019): 2 mg/L
Anti-Fungal Activity (MIC) ([11]; Aspergillus fumigatus Rit 1): 4 mg/L
Anti-Fungal Activity (MIC) ([12]; Aspergillus fumigatus Rit 11): 4 mg/L
Anti-Fungal Activity (MIC) ([13]; Aspergillus fumigatus Rit 21): 4 mg/L
Anti-Fungal Activity (MIC) ([14]; Cryptococcus neoformans CNH99): <1 mg/L

S=C=NCCCCCCCCN=C=S [Compound 42, S═C═N—(CH2)8—N═C═S]
toxicity in treated mice [3]: no toxicity was observed
growth inhibitory activity in infected macrophages [5]: gave similar results
P24 values (virus (92TH594); [16]): 630 pg/mL
P24 values (virus (92TH594); [17]): 220 pg/mL
P24 values (virus (92TH594); [18]): 700 pg/mL
P24 values (virus (92TH594); [19]): 0 pg/mL
cytotoxicity in infected macrophages [7]: exhibited more toxicity
MIC [8, 20]: 2 mg/L (≈ 8.76 µM)
